The text below walks through data of ChEMBL document CHEMBL5252571, “Substitution to hydrophobic linker and formation of host-guest complex enhanced the effect of synthetic transcription factor made of pyrrole-imidazole polyamide” (Bioorg Med Chem, 2023).

Data set [1] has as its system GM15850. As to the kind of experiment: Induction of FRDA expression in human GM15850 cells derived from Friedreich's ataxia patient assessed as increase in FXN transcription incubated for 24 hrs by RT-PCR analysis. The class given is functional, cell-based.
Data set [2] in a line: Aqueous solubility of compound incubated for 20 mins by HPLC analysis. The class given is physicochemical. To be noted: buffer.
Data set [3] has as its system GM15850. As to the kind of experiment: Induction of FRDA expression in human GM15850 cells derived from Friedreich's ataxia patient assessed as increase in FXN transcription at 100 to 300 nM incubated for 24 hrs by RT-PCR analysis. In kind it is functional, cell-based. To be noted: dose 100-300 nM.
In data set [4] the test system is GM15850. As to the kind of experiment: Cytotoxicity against human GM15850 cells derived from Friedreich's ataxia patient assessed as decrease in cell viability at >300 nM incubated for 48 hrs by cell count reagent SF based colorimetric assay. In kind it is toxicity. Conditions: gm15850, 48 h, 0.3 µM.
The test system of data set [5] is GM15850. As to the kind of experiment: Induction of FRDA expression in human GM15850 cells derived from Friedreich's ataxia patient assessed as increase in FXN transcription at 100 to 1000 nM incubated for 24 hrs in presence of 1.0 to 2.5 mM 2-hydroxypropyl-beta-cyclodextrin adjuvant by RT-PCR analysis. The class given is functional, cell-based. To be noted: dose 100-1000 nM.

In data set [6] the test system is GM15850. As to the kind of experiment: Protective activity against human GM15850 cells derived from Friedreich's ataxia patient assessed as decrease in cytotoxicity at 1 uM incubated for 48 hrs in presence of 0.2 to 10 mM 2-hydroxypropyl-beta-cyclodextrin adjuvant by cell count reagent SF based colorimetric assay. In kind it is functional.
Data set [7] has as its system GM15850. As to the kind of experiment: Induction of FRDA expression in human GM15850 cells derived from Friedreich's ataxia patient assessed as increase in FXN transcription at >300 nM incubated for 24 hrs by RT-PCR analysis. In kind it is functional, cell-based.
Data set [8] relates to GM15850. As to the kind of experiment: Protective activity against human GM15850 cells derived from Friedreich's ataxia patient assessed as decrease in cytotoxicity at 1 uM incubated for 48 hrs in presence of 1 mM 2-hydroxypropyl-beta-cyclodextrin adjuvant by cell count reagent SF based colorimetric assay. The class given is functional.

Activity calls are given as the source filed them. The calls are words filed in the database; no cut-off is given here.

For `Cc1sc2c(c1C)C(c1ccc(Cl)cc1)=N[C@@H](CC(=O)NCCOCCOCCOCCOCCOCCOCCC(=O)NCCCCCCCNC(=O)CCNC(=O)c1nc(NC(=O)CCNC(=O)c3cc(NC(=O)c4nc(NC(=O)CCNC(=O)c5cc(NC(=O)c6nc(NC(=O)CCCN(C)C)cn6C)cn5C)cn4C)cn3C)cn1C)c1nnc(C)n1-2`, the outcome with GM15850 [1] was inactive.
Turning to `Cc1sc2c(c1C)C(c1ccc(Cl)cc1)=N[C@@H](CC(=O)NCCOCCOCCOCCOCCOCCOCCC(=O)NCCCN(C)CCCNC(=O)CCNC(=O)c1nc(NC(=O)CCNC(=O)c3cc(NC(=O)c4nc(NC(=O)CCNC(=O)c5cc(NC(=O)c6nc(NC(=O)CCCN(C)C)cn6C)cn5C)cn4C)cn3C)cn1C)c1nnc(C)n1-2`, the result with GM15850 [1] was inactive.
As to `Cc1sc2c(c1C)C(c1ccc(Cl)cc1)=N[C@@H](CC(=O)NCCOCCOCCOCCOCCOCCOCCC(=O)NCCCN(C)CCCNC(=O)CCNC(=O)c1nc(NC(=O)CCNC(=O)c3cc(NC(=O)c4nc(NC(=O)CCNC(=O)c5cc(NC(=O)c6nccn6C)cn5C)cn4C)cn3C)cn1C)c1nnc(C)n1-2`, in data set [2], the solubility entry is “Soluble”. For the same molecule, the outcome with GM15850 [1] and with GM15850 [3] was Active.
`Cc1sc2c(c1C)C(c1ccc(Cl)cc1)=N[C@@H](CC(=O)NCCOCCOCCOCCOCCOCCOCCC(=O)NCCCCCCCNC(=O)CCNC(=O)c1nc(NC(=O)CCNC(=O)c3cc(NC(=O)c4nc(NC(=O)CCNC(=O)c5cc(NC(=O)c6nccn6C)cn5C)cn4C)cn3C)cn1C)c1nnc(C)n1-2`: in the data set with GM15850 [4], the Activity result is listed as “Toxic”. The result in the data set with GM15850 [5], in the data set with GM15850 [6] and in the data set on GM15850 [7] was inactive. Moreover, the solubility result in data set [2] is recorded as “Soluble”. The result in the data set on GM15850 [3] and in the data set with GM15850 [8] was Active.
